The nature of the series: Physical stability and aqueous dissolution of monohydrate versus anhydrate form. Format: physicochemical.

SMILES strings stand for the structures.

Consider `COc1ccc(COc2ccc(Cn3c(N)nc4cc(-c5cnn(C)c5)cnc43)cc2OC)cc1` [GZ389988A, 3-(3-methoxy-4-((4-methoxybenzyl)oxy)benzyl)-6-(1-methyl-1H-pyrazol-4-yl)-3H-imidazo[4,5-b]pyridin-2-amine monohydrate], for which the “aqueous dissolution compared to the anhydrate form” value is given as “slower aqueous dissolution” and the “physical stability compared to the anhydrate form” value was “better physical stability”. Regarding `COc1ccc(COc2ccc(Cn3c(N)nc4cc(-c5cnn(C)c5)cnc43)cc2OC)cc1` [GZ389988, 3-(3-methoxy-4-((4-methoxybenzyl)oxy)benzyl)-6-(1-methyl-1H-pyrazol-4-yl)-3H-imidazo[4,5-b]pyridin-2-amine], the stability in solution entry is given as “relatively unstable in solution”.

(Values after patent publication US11110055B2, “Pharmaceutical formulations of tropomyosin related kinase (TRK) inhibitors” (Genzyme Corporation, priority 2014, dated 2021).)
